Legend:
[1] = system: matching cell lines; settings: cited from earlier work; for increase in the IC50 value resulting from MGMT expression: same matching cell lines with/without MGMT expression
[2] = Linker half-life determination by spectrophotometric proton release assay (spontaneous hydrolysis); type: physicochemical; settings: buffer; 37 °C, pH 7.4; low molecular weight 90CE prodrugs with different N-2 substituents; read-out: Half-life (h) 37°C pH 7.4 (spontaneous hydrolysis) (converted)
Description: Linker half-life determination. The hydrolytic half-lives of several proposed linker moieties were determined using the proton release assay. The results are given in (Figure 4), several possible linkers with suitably long half-live values (40–300 h) were identified.
Decomposition kinetics. The kinetics of decomposition of various compounds and intermediates under various conditions can be followed using a spectrophotometric proton release assay. This is the preferred method for relatively short-lived agents as the decomposition can be followed in real time. This method is also suitable for following the decomposition of much longer-lived agents, as long as the reaction vessel/cuvette is sealed to prevent changes in pH due to CO2 absorption/desorption, and the temperature is closely controlled.

[3] = system: O-6 position of DNA guanine; design: method as in PMID 20654586; settings: relative to chloroethylating counterpart 90CE; cited from earlier work

O=NN(CCCl)C(=O)NCCCl [bis-chloroethylnitrosourea (BCNU), bis-chloroethylnitrosourea]
increase in the IC50 value resulting from MGMT expression [1]: 2 to 3 fold

CC(=O)N(N(CCCl)S(C)(=O)=O)S(C)(=O)=O [A]
half-life [2]: 42.9 ± 2.1 h

COC(=O)N(N(CCCl)S(C)(=O)=O)S(C)(=O)=O [B]
half-life [2]: > 300 h

CN(NS(C)(=O)=O)S(C)(=O)=O [KS90, 1,2-bis(methylsulfonyl)-1-(methyl)hydrazine]
molar yield of guanine O-6 alkylations relative to 90CE [3]: 5–6 times

CCN(CC)C(=O)N(N(CCCl)S(C)(=O)=O)S(C)(=O)=O [E]
half-life [2]: 10.3 ± 0.3 h

CNC(=O)N(N(CCCl)S(C)(=O)=O)S(C)(=O)=O [C]
half-life [2]: 1.17 ± 0.02 h

CS(=O)(=O)N(CCCl)N(C(=O)N1CCOCC1)S(C)(=O)=O [I]
half-life [2]: > 300 h

CN(C)C(=O)N(N(CCCl)S(C)(=O)=O)S(C)(=O)=O [D]
half-life [2]: 129 ± 9 h

CS(=O)(=O)NN(CCCl)S(C)(=O)=O [90CE, 1,2-bis(methylsulfonyl)-1-(2-chloroethyl)hydrazine]
MGMT level up to which protection towards the agent is proportional to MGMT activity [1]: ~ 10,000 MGMT molecules/cell | increase in the IC50 value resulting from MGMT expression [1]: ~ 20 fold

CS(=O)(=O)N(CCCl)N(C(=O)N1CCCCC1)S(C)(=O)=O [H]
half-life [2]: 16.2 ± 0.5 h

CS(=O)(=O)N(CCCl)N(C(=O)N1CCCC1)S(C)(=O)=O [F]
half-life [2]: > 300 h

CC1CCC(C)N1C(=O)N(N(CCCl)S(C)(=O)=O)S(C)(=O)=O (stereo not shown) [G]
half-life [2]: > 300 h

Source: paper PMC7825511, “Design Strategy for the EPR Tumor-Targeting of 1,2-Bis(sulfonyl)-1-alkylhydrazines” (Molecules, 2021)
